Measurements taken from patent US20220257597A1, “Methods of Administering Elagolix” (AbbVie Inc., priority 2021, published 2022).
Where two headings read alike, the source gives them in different places.

Tests used:
[1] = Drug interaction studies: change in pharmacokinetics of elagolix in the presence of co-administered drugs; format: in vivo, human; details: for changes in elagolix exposures when co-administered, in words: elagolix 300 mg twice daily, rosuvastatin 20 mg once daily, sertraline 25 mg once daily or fluconazole 200 mg single dose
[2] = Drug interactions: effects of ORILISSA on other drugs; details: co-administration of ORILISSA
[3] = Drug interactions: effects of ORIAHNN on other drugs; details: co-administration of ORIAHNN
[4] = Drug interaction studies: change in pharmacokinetics of co-administered drug in the presence of elagolix; format: in vivo, human; details: for changes in exposures when co-administered with elagolix, in words: elagolix 300 mg twice daily
Description: Drug interaction studies were performed with elagolix and other drugs likely to be co-administered and with drugs commonly used as probes for pharmacokinetic interactions. Tables 8 and 9 summarize the pharmacokinetic effects when elagolix was co-administered with these drugs.

CYP3A = assay: Substrate of / metabolism by CYP3A; format: in vitro ADME
[5] = Phase 1 open-label study: coadministration of combined oral contraceptive (EE+LNG) with elagolix sodium, pharmacokinetics, safety and tolerability; format: in vivo, human; details: for AUCinf ratio, co-administered in the presence of elagolix vs alone / Cmax ratio, co-administered in the presence of elagolix vs alone: elagolix 200 mg twice daily
Description: Objective: To evaluate the effect of elagolix on the pharmacokinetics, safety, and tolerability of a single dose of a combined oral contraceptive (COC) containing EE and LNG in healthy premenopausal female subjects. […] [table] […] Diagnosis and Main Criteria for Inclusion: Subjects were premenopausal females, and age was between 18 and 49 years, inclusive. Test Product, Dose/Strength/Concentration, and Mode of Administration: […] EE/LNG 0.02 mg/0.1 mg tablet; All study drugs were administered orally. Duration of Treatment: […] EE/LNG: 0.02 mg/0.1 mg on two separate occasions. Criteria for Evaluation: Pharmacokinetic: Cmax, Tmax, t1/2 and AUC. Safety: Vital signs, physical examinations, laboratory tests, and adverse events. […] The tabulation of the number of subjects with treatment-emergent adverse events also was provided with further breakdowns by severity rating and relationship to study drug.

[6] = digoxin 0.5 mg single dose, elagolix 200 mg twice daily x 10 days, N 11
[7] = COC 20 mcg EE/0.1 mg levonorgestrel
[8] = COC 20 mcg EE/0.1 mg levonorgestrel, listed as EE
[9] = Study Day 1: EE/LNG 0.02 mg/0.1 mg
[10] = ethinyl estradiol 20 mcg/levonorgestrel 0.1 mg single dose, elagolix 200 mg twice daily x 15 days, N 20
[11] = following elagolix 200 mg BID for 14 days
[12] = ethinyl estradiol 35 mcg and triphasic norgestimate 0.18/0.215/0.25 mg once daily, elagolix 150 mg once daily, N 21
[13] = midazolam 2 mg single dose, elagolix 150 mg once daily x 13 days, N 11
[14] = midazolam 2 mg single dose, elagolix 300 mg twice daily x 11 days, N 20
[15] = rosuvastatin 20 mg once daily, elagolix 300 mg twice daily x 7 days, N 10

CO[C@H]1/C=C/O[C@@]2(C)Oc3c(C)c(O)c4c(O)c(c(/C=N/N5CCN(C)CC5)c(O)c4c3C2=O)NC(=O)/C(C)=C\C=C\[C@H](C)[C@H](O)[C@@H](C)[C@@H](O)[C@@H](C)[C@H](OC(C)=O)[C@@H]1C [Rifampin]
effect of concomitant use on plasma concentrations of elagolix, in words ([1]; concomitant use of rifampin): increased

C[C@H]1O[C@@H](O[C@H]2[C@@H](O)C[C@H](O[C@H]3[C@@H](O)C[C@H](O[C@H]4CC[C@@]5(C)[C@H](CC[C@@H]6[C@@H]5C[C@@H](O)[C@]5(C)[C@@H](C7=CC(=O)OC7)CC[C@]65O)C4)O[C@@H]3C)O[C@@H]2C)C[C@H](O)[C@@H]1O [digoxin]
Effect on Plasma Exposure of Concomitant Drug (direction of change in AUC) [2]: ↑ digoxin | Effect on Plasma Exposure of Concomitant Drug (direction of change in AUC) [3]: ↑ digoxin | Ratio (90% CI) AUC, co-administration with elagolix vs medication alone [4, 6]: 1.26 | Ratio (90% CI) Cmax, co-administration with elagolix vs medication alone [4, 6]: 1.71

C[C@]12CC[C@@H]3c4ccc(O)cc4CC[C@H]3[C@@H]1CC[C@@H]2O [estradiol]
metabolism by CYP3A (CYP3A): metabolized partially by CYP3A

C#C[C@]1(O)CC[C@H]2[C@@H]3CCc4cc(O)ccc4[C@H]3CC[C@@]21C [ethinyl estradiol, 17α-Ethynylestra-1,3,5(10)-triene-3,17β-diol]
Effect on Plasma Exposure of Concomitant Drug (direction of change in AUC) [2]: ↑ethinyl | AUCinf ratio, co-administered in the presence of elagolix vs alone [5, 7]: 2.18 | Cmax ratio, co-administered in the presence of elagolix vs alone [5, 7]: 1.36 | increase in plasma EE concentration compared to COC alone ([5]; COC 20 mcg EE/0.1 mg levonorgestrel, elagolix 200 mg twice daily for 14 days): 2.2 fold | AUCinf ratio, co-administered in the presence of elagolix vs alone [5, 8]: about 2.18 | Cmax ratio, co-administered in the presence of elagolix vs alone [5, 8]: about 1.36 | AUCinf, Central Value Reference [5, 9]: 0.494 ng·h/mL | CCmax, Central Value Reference [5, 9]: 49.0 pg/mL | CCmax, Central Value Test ([5]; Study Day 18: EE/LNG 0.02 mg/0.1 mg + elagolix 200 mg): 66.4 pg/mL | Ratio (90% CI) AUC, co-administration with elagolix vs medication alone [5, 10]: 2.18 | Ratio (90% CI) Cmax, co-administration with elagolix vs medication alone [5, 10]: 1.36 | AUC(0-t) ([5]; female, human, in vivo, oral, Study Day 1: EE/LNG 0.02 mg/0.1 mg, read-out: AUCt, Central Value Reference): 0.437 ng·h/mL | AUC(0-inf) ([5]; female, human, in vivo, oral, Study Day 18: EE/LNG 0.02 mg/0.1 mg + elagolix 200 mg, read-out: AUCinf, Central Value Test): 1.08 ng·h/mL | AUC(0-t) ([5]; female, human, in vivo, oral, Study Day 18: EE/LNG 0.02 mg/0.1 mg + elagolix 200 mg, read-out: AUCt, Central Value Test): 0.941 ng·h/mL | increase in AUCinf [5, 11]: 118% | increase in Cmax [5, 11]: 36% | Effect on Plasma Exposure of Concomitant Drug (direction of change in AUC) [3]: ↑ethinyl | Ratio (90% CI) AUC, co-administration with elagolix vs medication alone [4, 12]: 1.30 | Ratio (90% CI) Cmax, co-administration with elagolix vs medication alone [4, 12]: 1.15

OC(Cn1cncn1)(Cn1cncn1)c1ccc(F)cc1F [fluconazole]
changes in elagolix exposures when co-administered, in words [1]: No clinically significant changes | changes in exposures when co-administered with elagolix, in words [4]: No clinically significant changes

Cc1ncc2n1-c1ccc(Cl)cc1C(c1ccccc1F)=NC2 [midazolam]
Effect on Plasma Exposure of Concomitant Drug (direction of change in AUC) [2]: ↓ midazolam | Effect on Plasma Exposure of Concomitant Drug (direction of change in AUC) [3]: ↓ midazolam | Ratio (90% CI) AUC, co-administration with elagolix vs medication alone [4, 13]: 0.65 | Ratio (90% CI) Cmax, co-administration with elagolix vs medication alone [4, 13]: 0.81 | Ratio (90% CI) AUC, co-administration with elagolix vs medication alone [4, 14]: 0.46 | Ratio (90% CI) Cmax, co-administration with elagolix vs medication alone [4, 14]: 0.56

C#C[C@]1(OC(C)=O)CC[C@H]2[C@@H]3CCC4=CC(=O)CC[C@@H]4[C@H]3CC[C@@]21C [norethindrone acetate]
metabolism by CYP3A (CYP3A): metabolized partially by CYP3A

CC(C)c1nc(N(C)S(C)(=O)=O)nc(-c2ccc(F)cc2)c1/C=C/[C@@H](O)C[C@@H](O)CC(=O)O [rosuvastatin]
Effect on Plasma Exposure of Concomitant Drug (direction of change in AUC) [2]: ↓ rosuvastatin | Effect on Plasma Exposure of Concomitant Drug (direction of change in AUC) [3]: ↓ rosuvastatin | changes in elagolix exposures when co-administered, in words [1]: No clinically significant changes | Ratio (90% CI) AUC, co-administration with elagolix vs medication alone [4, 15]: 0.60 | Ratio (90% CI) Cmax, co-administration with elagolix vs medication alone [4, 15]: 0.99

CN[C@H]1CC[C@@H](c2ccc(Cl)c(Cl)c2)c2ccccc21 [sertraline]
changes in elagolix exposures when co-administered, in words [1]: No clinically significant changes | changes in exposures when co-administered with elagolix, in words [4]: No clinically significant changes
